Patent publication US20230067929A1, “HETEROCYCLIC DERIVATIVES, PHARMACEUTICAL COMPOSITIONS AND THEIR USE IN THE TREATMENT, AMELIORATION OR PREVENTION OF CANCER” (Tolremo Therapeutics AG, priority 2018, published 2023)

tested on: A375 cells; assay: A375 cell immunofluorescence assay (with 1 μM S1152 and 0.5 μM S1008), EC50; format: cell-based; conditions: 1 μM S1152 + 0.5 μM S1008, one day, ratio FL2/FL3 staining (sc-365823 antibody)
Description: One thousand four hundred A375 cells were seeded in each well of a 384 well microplate. One day later they were treated with 1 μM S1152 (Selleckchem) in dimethyl sulfoxide, 0.5 μM S1008 (Selleckchem) and dose ranges of invention compounds for one day in Dulbecco's Modified Eagle's Medium supplemented with 10% fetal calf serum and 2 mM (2S)-2-amino-4-carbamoylbutanoic acid. Wells were incubated with 4% polyoxymethylene (Sigma Aldrich 158127) at ambient temperature. After ten minutes, polyoxymethylene was replaced with phosphate-buffered saline. After one minute phosphate-buffered saline was replaced with 0.2% polyethylene glycol octylphenyl ether in phosphate-buffered saline. After ten minutes at ambient temperature 0.2% polyethylene glycol octylphenyl ether in phosphate-buffered saline was replaced with 1% aminoethanoic acid in phosphate-buffered saline. […] After one hour at 37° C., the solution was replaced with phosphate-buffered saline twice. Phosphate-buffered saline was replaced with 2 μg/ml A-11029 (Invitrogen) in 0.05% polyoxyethylene (20) sorbitan monolaurate in phosphate-buffered saline. […] After one hour at ambient temperature in the dark, signal in wells was measured with a Acumen Cellista. 3,8-Diamino-5-[3-(diethylmethylammonio)propyl]-6-phenylphenanthridinium diiodide-positive objects were defined in FL3 (565-600 nm) with a perimeter between 50-800 μm and a total intensity of 10000-1000000 FLU. Signal in FL2 (500-530 nm) was measured in defined objects. A normalized ratio of total ln FL2 over total ln FL3 staining was log transformed. A non-linear regression (variable slope, 4 parameters) was used to calculate EC50 values using GraphPad Prism (Version 7.0d).

| SMILES | EC50 [µM] |
| --- | --- |
| CC(=O)N1CCCC(c2nc(Nc3cccc(C)c3)cc(-c3cncc4[nH]ncc34)n2)C1 (stereo not shown) | < 1 |
| CCC(=O)N1CCCC(c2nc(Cl)cc(Nc3cccc(F)c3)n2)C1 (stereo not shown) | > 10 |
| CC(=O)N1C[C@H](c2nc(Nc3ccccc3)cc(-c3cncnc3)n2)CC[C@@H]1C | < 1 |
| O=C1CCC2CCC(c3nc(Nc4cccc(F)c4)cc(-c4cccnc4)n3)CN12 (stereo not shown) | > 10 |
| CC(=O)N1CCCC(c2nc(Nc3cccc(C)c3)cc(-c3cccnc3)n2)C1 (stereo not shown) | < 1 |
| CC(=O)N1CCC(C)C(c2nc(Nc3cccc(F)c3)cc(-c3cccnc3)n2)C1 (stereo not shown) [drawing 719] | 1 to 10 |
| COc1cncc(-c2cc(Nc3ccc(Cl)cc3)nc(C3CCCN(C(C)=O)C3)n2)c1 (stereo not shown) | 1 to 10 |
| CCC(=O)N1CCCC(c2nc(Nc3cccc(F)c3)cc(-c3cnc(NC)nc3)n2)C1 (stereo not shown) | > 10 |
| CCC(=O)N1CCCC(c2nc(Nc3cccc(F)c3)cc(Nc3cnccn3)n2)C1 (stereo not shown) | > 10 |
| CCC(=O)N1CCCC(c2nc(Nc3cccc(F)c3)cc(NC3CCC3)n2)C1 (stereo not shown) | > 10 |
| CC(=O)N1CCCC(c2nc(Nc3cccc(F)c3)cc(-c3cncnc3)n2)C1 (stereo not shown) | 1 to 10 |
| CCC(=O)N1CCCC(c2nc(Nc3cccc(F)c3)cc(-c3cnc(OC(C)C)s3)n2)C1 (stereo not shown) | > 10 |
| CCC(=O)N1CCCC(c2nc(Nc3cccc(F)c3)cc(-c3ccsc3)n2)C1 (stereo not shown) | > 10 |
| CC(=O)N1CCCC(c2nc(Nc3ncccn3)cc(-c3cccnc3)n2)C1 (stereo not shown) | > 10 |
| CC(=O)N1CC(c2nc(Nc3cccc(F)c3)cc(-c3cccnc3)n2)CC2CCCCC21 (stereo not shown) | 1 to 10 |
| CC(=O)Nc1cncc(-c2cc(Nc3cccc(F)c3)nc(C3CCCN(C(C)=O)C3)n2)c1 (stereo not shown) | < 1 |
| CC(=O)N1CCCC(c2nc(Nc3ccncc3)cc(-c3cccnc3)n2)C1 (stereo not shown) | 1 to 10 |
| CC(=O)N1CCCC(c2nc(Nc3cccc(F)c3)cc(-c3cccc4[nH]ccc34)n2)C1 (stereo not shown) | < 1 |
| CC(=O)N1CCCC(c2nc(NC3CCCC3)cc(-c3cccnc3)n2)C1 (stereo not shown) | > 10 |

| SMILES | EC50 [µM] |
| --- | --- |
| O=CN1CCCC(c2nc(Nc3cccc(F)c3)cc(-c3cccnc3)n2)C1 (stereo not shown) | > 10 |
| COc1cncc(-c2cc(Nc3ccccc3)nc(C3CCCN(C(C)=O)C3)n2)c1 (stereo not shown) | < 1 |
| CCC(=O)N1CCCC(c2nc(Nc3cccc(F)c3)cc(-c3cncc4[nH]ccc34)n2)C1 (stereo not shown) | > 10 |
| COc1cncc(-c2cc(Nc3ccc(OCCOCCOCCNC(C)=O)cc3)nc(C3CCCN(C(C)=O)C3)n2)c1 (stereo not shown) | > 10 |
| CC(=O)N1CCCC(c2nc(Nc3cncc(C)c3)cc(-c3cncc4[nH]ccc34)n2)C1 (stereo not shown) | 1 to 10 |
| CC(=O)N1C[C@H](c2nc(Nc3cccc(C)c3)cc(-c3cccnc3)n2)CC[C@@H]1C(F)(F)F | < 1 |
| COc1csc(-c2cc(Nc3cccc(C)c3)nc(C3CCCN(C(C)=O)C3)n2)c1 (stereo not shown) | < 1 |
| CC(=O)N1CCCCC(c2nc(Nc3cccc(F)c3)cc(-c3cccnc3)n2)C1 (stereo not shown) | < 1 |
| CCC(=O)N1CCCC(c2nc(Nc3cccc(F)c3)cc(-c3ccccc3C(=O)NC)n2)C1 (stereo not shown) | > 10 |
| CCC(=O)N1CCCC(c2nc(Nc3cccc(F)c3)cc(-c3cncc(C(=O)NC)c3)n2)C1 (stereo not shown) | 1 to 10 |
| CC(=O)N1CC(c2cc(Nc3cccc(F)c3)cc(-c3cccnc3)n2)=CCC1C (stereo not shown) | 1 to 10 |
| CCc1cncc(-c2cc(Nc3cccc(F)c3)nc(C3CCCN(C(C)=O)C3)n2)c1 (stereo not shown) | < 1 |
| CC(=O)N1CCCC(c2nc(Nc3ccncn3)cc(-c3cccnc3)n2)C1 (stereo not shown) | > 10 |
| COc1cccc(-c2cc(Nc3cccc(F)c3)nc(C3CCCN(C(C)=O)C3)n2)c1 (stereo not shown) | 1 to 10 |
| CCC(=O)N1CCCC(c2nc(Nc3cccc(F)c3)cc(-c3ccc(C(=O)NC)cc3)n2)C1 (stereo not shown) | 1 to 10 |
| CC(=O)N1CCCC(c2nc(Nc3cccc(C)c3)cc(-c3c(C)noc3C)n2)C1 (stereo not shown) | 1 to 10 |
| CC(=O)N1CCCC(c2nc(Nc3cccc(F)c3)cc(-c3ccc(N4CCN(C)CC4)nc3)n2)C1 (stereo not shown) | > 10 |
| CC(=O)N1CCCC(c2nc(Nc3cccc(F)c3)cc(-c3cncc(C(F)(F)F)c3)n2)C1 (stereo not shown) | > 10 |

The remaining lines, values ahead:

| EC50 [µM] | SMILES |
| --- | --- |
| > 10 | CCC(=O)N1CCCC(c2nc(Cl)cc(Oc3cccc(F)c3)n2)C1 (stereo not shown) |
| 1 to 10 | CCC(=O)N1CCCC(c2nc(Nc3cccc(F)c3)cc(Nc3ncccn3)n2)C1 (stereo not shown) |
| 1 to 10 | CCC(=O)N1CCCC(c2nc(Nc3cccc(F)c3)cc(-c3ccccc3)n2)C1 (stereo not shown) |
| > 10 | CC(=O)N1CCCC(c2nc(Nc3cccc(F)c3)cc(-c3csc4cnccc34)n2)C1 (stereo not shown) |
| > 10 | CC(=O)N1CCCC(c2nc(Nc3ccnnc3)cc(-c3cccnc3)n2)C1 (stereo not shown) |
| 1 to 10 | CC(=O)N1CCCC(c2nc(Nc3cccc(F)c3)cc(-c3ccc(C)nc3)n2)C1 (stereo not shown) |
| 1 to 10 | CC(=O)N1CC(F)CC(c2nc(Nc3cccc(F)c3)cc(-c3cccnc3)n2)C1 (stereo not shown) [drawing 703] |
| > 10 | CCC(=O)N1CCCC(c2nc(Nc3cccc(F)c3)cc(C3=CCCCC3)n2)C1 (stereo not shown) |
| > 10 | CCC(=O)N1CCCC(c2nc(Nc3cccc(F)c3)cc(-c3ccc(OC)nc3)n2)C1 (stereo not shown) |
| < 1 | CC(=O)N1C[C@H](c2nc(Nc3cncc(C)c3)cc(-c3cncc(C4COC4)c3)n2)CC[C@@H]1C |
| 1 to 10 | CCC(=O)N1CCCC(c2nc(Nc3ccccc3)cc(-c3cccnc3)n2)C1 (stereo not shown) |
| 1 to 10 | COc1ccc(-c2cc(Nc3cccc(F)c3)nc(C3CCCN(C(C)=O)C3)n2)cc1 (stereo not shown) |
| < 1 | CC(=O)N1C[C@H](c2nc(Nc3cncc(C)c3)cc(-c3cncnc3)n2)CC[C@@H]1C |
| 1 to 10 | CCC(=O)N1CCCC(c2nc(Nc3ccc(Cl)cc3)cc(-c3cccnc3)n2)C1 (stereo not shown) |
| < 1 | CC(=O)N1CCCC(c2nc(Nc3cccc(F)c3)cc(-c3cccnc3)n2)C1 (stereo not shown) |
| > 10 | CC(=O)N1CCCC(Nc2cc(Nc3cccc(F)c3)nc(C3CCCN(C(C)=O)C3)n2)C1 (stereo not shown) |
| 1 to 10 | CCC(=O)N1CCCC(c2nc(Nc3cccc(F)c3)cc(-c3ccc(OC)cc3)n2)C1 (stereo not shown) |

| EC50 [µM] | SMILES |
| --- | --- |
| > 10 | CCC(=O)N1CCCC(c2nc(Nc3ccccc3F)cc(-c3ccncc3)n2)C1 (stereo not shown) |
| 1 to 10 | CC(=O)NCCOCCOCCOc1cncc(-c2cc(Nc3cccc(F)c3)nc(C3CCCN(C(C)=O)C3)n2)c1 (stereo not shown) |
| < 1 | CC(=O)N1C[C@H](c2nc(Nc3ccncc3)cc(-c3cccnc3)n2)CC[C@@H]1C |
| 1 to 10 | CC(=O)N1CCCC(c2nc(Nc3cncc(C)n3)cc(-c3cccnc3)n2)C1 (stereo not shown) |
| < 1 | [2H]C([2H])([2H])C(=O)N1CCCC(c2nc(Nc3cccc(F)c3)cc(-c3cccnc3)n2)C1 (stereo not shown) |
| 1 to 10 | CCC(=O)N1CCCC(c2nc(Nc3cccc(F)c3)cc(-c3c(C)noc3C)n2)C1 (stereo not shown) |
| > 10 | CC(=O)N1CCOC(c2nc(Nc3cccc(F)c3)cc(-c3cccnc3)n2)C1 (stereo not shown) |
| > 10 | CCC(=O)N1CCCC(c2nc(Nc3cccc(F)c3)cc(-c3cnn(C(C)C)c3)n2)C1 (stereo not shown) |
| > 10 | CCC(=O)N1CCCC(c2nc(NC3CCCC3)cc(-c3cccnc3)n2)C1 (stereo not shown) |
| 1 to 10 | CC(=O)N1CCCC(c2nc(Nc3cc(F)cc(F)c3)cc(-c3ccnnc3)n2)C1 (stereo not shown) |
| < 1 | CC(=O)N1C[C@H](c2nc(Nc3cncc(C)c3)cc(-c3cccnc3)n2)CC[C@@H]1C |
| 1 to 10 | CCC(=O)N1CCCC(c2nc(Nc3cccc(F)c3)cc(-c3cccc(-c4nnc(C)o4)c3)n2)C1 (stereo not shown) |
| 1 to 10 | COc1cncc(-c2cc(Nc3cccc(F)c3)cc(C3CCCN(C(C)=O)C3)n2)c1 (stereo not shown) |
| < 1 | CC(=O)N1C[C@H](c2nc(Nc3cccc(F)c3)cc(-c3cccnc3)n2)CC[C@@H]1C(F)(F)F |
| < 1 | CC(=O)N1CC(c2ccccc2)CC(c2nc(Nc3cccc(F)c3)cc(-c3cccnc3)n2)C1 (stereo not shown) |
| > 10 | CCC(=O)N1CCCC(c2nc(Nc3cccc(F)c3)cc(-c3cn(C)nc3C)n2)C1 (stereo not shown) |
